Experimental data taken from PMC9124651, “High-performance thin-layer chromatography in combination with an acetylcholinesterase-inhibition bioassay with pre-oxidation of organothiophosphates to determine neurotoxic effects in storm, waste, and surface water” (Analytical and Bioanalytical Chemistry, 2022).
≈ marks a conversion by molar mass, not a printed value.

Target: T1, AChE from electric eel (Electrophorus electricus) (Electrophorus electricus, UniProt O42275)
T1 construct: purchased Sigma-Aldrich GmbH (Steinheim, Germany)
T1 sequence (O42275 24-633): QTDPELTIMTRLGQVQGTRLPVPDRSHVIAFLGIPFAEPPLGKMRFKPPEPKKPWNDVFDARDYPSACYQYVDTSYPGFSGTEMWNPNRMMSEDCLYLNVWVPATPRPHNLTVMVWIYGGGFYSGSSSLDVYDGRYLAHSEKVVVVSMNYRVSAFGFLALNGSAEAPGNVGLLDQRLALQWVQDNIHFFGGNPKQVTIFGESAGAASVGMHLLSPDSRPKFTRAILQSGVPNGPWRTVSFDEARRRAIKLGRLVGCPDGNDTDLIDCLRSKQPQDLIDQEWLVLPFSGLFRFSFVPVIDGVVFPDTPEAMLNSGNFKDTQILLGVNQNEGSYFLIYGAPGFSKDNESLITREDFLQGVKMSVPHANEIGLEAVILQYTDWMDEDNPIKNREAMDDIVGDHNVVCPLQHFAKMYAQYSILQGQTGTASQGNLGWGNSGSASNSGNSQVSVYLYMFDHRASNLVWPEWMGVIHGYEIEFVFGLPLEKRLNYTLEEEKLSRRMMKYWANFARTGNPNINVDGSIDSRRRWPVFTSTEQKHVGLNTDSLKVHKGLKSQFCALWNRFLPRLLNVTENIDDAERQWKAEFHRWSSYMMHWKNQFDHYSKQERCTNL
Experiment: AChE-inhibition microtiter assay (Ellman, 96-well, with or without NBS oxidation)
Format: biochemical
Details: for IC80 / IC20: no oxidation, 4-PL fit, n = 4; for IC80: read-out: IC20 (inhibition concentration for 20% AChE activity), best fit; for IC20: read-out: IC80 (inhibition concentration for 80% AChE activity), best fit
Procedure: Stock solutions (1 mg/mL) of NBS and ascorbic acid were each freshly prepared before the test and then diluted to 10 µg/mL and 100 µg/mL, respectively. The assay was performed with modifications according to Ellman’s method. OTPs, oxons, water, and methanol blanks (15 µL) were each mixed with 15 µL of NBS (10 µg/mL) in a 96-well plate. After an incubation at room temperature for 5 min, the reaction was stopped by adding 15 µL ascorbic acid (100 µg/mL). For the test setup without oxidation, OTPs, oxons, water, and methanol blanks (15 µL) were mixed with 30 µL water per well. Subsequently, 200 µL of a DTNB solution (0.15 mM), buffered in TRIS/HCl at a pH of 7.4, was added to each well of both test setups. Then, 20 µL of an AChE solution (0.5 U/mL), also buffered in TRIS/HCl at a pH of 7.4, was added. An incubation at 30 °C for 30 min without shaking followed. An ATCL solution (0.8 mM) was freshly prepared with water and 30 µL per well was added after incubation. During another incubation at room temperature for 30 min, ATCL was cleaved by AChE into thiocholine and acetic acid. Thiocholine reacts with DTNB to 2-nitro-5-thiobenzoate. The absorbance of the yellow-colored anion was photometrically measured at 405 nm (Sunrise Remote, Tecan Group AG, Männedorf, Schweiz).
Dilution series with eight concentrations of the three OTPs and related oxons (Tab. S1) were freshly prepared from stock solutions (1–10 mg/mL) in methanol. The OTPs and oxons were tested in duplicates with and without prior oxidation in two measurements as described in the “AChE-inhibition microtiter assay” section. Eight water and eight methanol blanks were tested per test setup (oxidation and no oxidation). Of these, two were tested without AChE and two without ATCL. The mean AChE activity (absorption at 405 nm, n = 4) was related to the specific inhibitor dose. The statistic program Prism (version 5.00, Graph Pad Software, San Diego, USA) was used to generate dose–response curves (4-PL fit) and to determine inhibition concentrations (ICs) for the three OTPs and related oxons. The 95% confidence intervals of the curves and the standard deviations of the mean AChE activity were also calculated. The lower boundary of the curves is fixed to 0 and the highest mean activity defines 100%.

| Structure (SMILES) | IC80 | IC20 | IC50 |
| --- | --- | --- | --- |
| CCOP(=O)(OCC)Oc1nc(Cl)c(Cl)cc1Cl [Chlorpyrifos-oxon] | 16 ng/mL (≈ 0.0478 µM) | 3.8 ng/mL (≈ 0.0114 µM) |  |
| CCOC(=O)CC(SP(=O)(OC)OC)C(=O)OCC (centres unmarked) [Malaoxon, malaoxon] | 42 ng/mL (≈ 0.134 µM) | 3.5 ng/mL (≈ 0.0111 µM) | 38.2 nM |
